Test results from US11814367B2, “Inhibitors of glycogen synthase 1 (GYS1) and methods of use thereof” (Maze Therapeutics, Inc., priority 2021, dated 2023).

Experiments:
[1] = system: hGYS1 enzyme / glycogen synthesis in HeLa cells; assay: GYS1 cell based assay (glycogen synthesis, Glucose-glo); set-up: species or system human; settings: Homo sapiens, HeLa, 24 h, 24 h incubation, 20 mM glucose, geometric mean of at least 2 runs
Source text: The GYS1 cell based assay is a bioluminescent assay that quantifies the glucose resulting from glycogen digestion; the quantified glucose is an indirect measure of GYS1 glycogen synthesis. Newly synthesized glycogen is digested using Glucoamylase; the resulting glucose is quantified by using the Glucose-glo assay kit from Promega. Glucose-glo works by coupling glucose oxidation and NADH production with a bioluminescent system that is activated with NADH. Glucose is oxidized by Glucose dehydrogenase and the reaction reduces NAD+ to NADH; NADH activates Reductase which reduces a pro-luciferin Reductase Substrate to luciferin. Luciferin is detected in a luciferase reaction using Ultra-Glo rLuciferase and ATP, and the luminesce produced is proportional to the glucose in the sample. The luminescence is measured as a single point read in a plate reader.
Compounds that inhibit the hGYS1 enzyme and, subsequently, the glycogen synthesis in cells, were tested using assay ready plates (white, clear bottom 384 well plates) in a final DMSO reaction volume of 1% DMSO. Compounds in the assay ready plates were mixed with media with no additives, except for 20 mM glucose prior to cell addition. HeLa cells were starved in media with no additives, except for 1× Glutamax for 24 h. Starved HeLa cells were plated, in a 1:1 ratio to the media in the assay ready plate and incubated for 24 h at 37° C. and 5% C02. Cells were washed in 1×PBS buffer and lysed in lysis buffer containing 50% 1×PBS and 25% 0.3 N HCl of the final volume in the well or reaction volume; cells were incubated with lysis buffer for 10 minutes and quenched with the remaining 25% of the reaction volume that consisted of 450 mM Tris pH 8.0. Lysates were mixed in a 1:1 ratio with Glucoamylase in 100 mM Sodium Acetate buffer, pH 5.3; the mixture was incubated for 1 h at 37° C. The digested lysate was mixed in a 1:1 ratio with Glucose-glo detection mixture as per vendor recommendations (Luciferase detection buffer, Reductase, Reductase substrate, Glucose dehydrogenase, and NAD) in read-out plates (solid white 384-well plates) and incubated for 1 h at RT. The plates were read using a plate reader with luminescence capabilities. Each compound concentration Relative Luminescence Unit (RLU) was averaged and normalized to the average RLU of the positive and negative controls to obtain a percentage inhibition. The normalized data vs. concentration was plotted; to determine the half-maximal concentration (IC50), the Levenberg-Marquardt algorithm was used to fit a Hill equation to the dose response data.
The results are shown in Table 3 below, which reports the IC50 of each compound. Unless otherwise specified, IC50 values are reported as the geometric mean of at least 2 assay runs on separate days. As shown in the table below, the compounds of the present invention are potent inhibitors of human GYS1. Unless otherwise specified, IC50 values are reported as the geometric mean of at least two assay runs on separate days. Each run represents the average of a technical replicate, where each compound was assayed twice in the same plate. A superscript “#” symbol in Table 3 indicates results from a single assay run.

[2] = target: hGYS1 enzyme (recombinant hGYS1/GN1 protein) (Homo sapiens (Human), UniProt P13807); assay: GYS1 coupled enzyme assay (PK/LDH); assay type: biochemical; settings: hGYS1/GN1 50 nM, UDP-Glucose 0.8 mM, G6P 1 mM; geometric mean of at least 2 runs
hGYS1 enzyme (recombinant hGYS1/GN1 protein), sequence (P13807 whole entry): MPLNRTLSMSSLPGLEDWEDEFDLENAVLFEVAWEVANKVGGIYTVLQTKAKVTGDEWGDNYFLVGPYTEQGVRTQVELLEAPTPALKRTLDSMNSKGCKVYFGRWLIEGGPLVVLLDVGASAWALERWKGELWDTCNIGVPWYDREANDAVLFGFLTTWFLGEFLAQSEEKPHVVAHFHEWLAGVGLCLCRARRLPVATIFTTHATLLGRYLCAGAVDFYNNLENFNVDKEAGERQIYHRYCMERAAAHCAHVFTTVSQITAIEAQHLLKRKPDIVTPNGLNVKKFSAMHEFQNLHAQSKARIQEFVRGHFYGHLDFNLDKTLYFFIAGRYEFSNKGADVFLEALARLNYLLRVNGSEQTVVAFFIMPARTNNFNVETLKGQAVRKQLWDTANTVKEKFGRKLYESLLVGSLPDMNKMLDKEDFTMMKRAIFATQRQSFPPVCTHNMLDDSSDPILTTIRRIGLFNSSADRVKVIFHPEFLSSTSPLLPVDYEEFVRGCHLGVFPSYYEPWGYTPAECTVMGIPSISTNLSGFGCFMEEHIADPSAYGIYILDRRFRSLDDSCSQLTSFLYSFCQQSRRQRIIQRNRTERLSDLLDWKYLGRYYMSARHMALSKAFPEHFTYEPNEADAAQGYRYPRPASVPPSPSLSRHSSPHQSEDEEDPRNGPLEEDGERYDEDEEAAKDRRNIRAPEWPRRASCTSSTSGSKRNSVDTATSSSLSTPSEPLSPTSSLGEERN
hGYS1 enzyme (recombinant hGYS1/GN1 protein), sequence (P46976 whole entry partner): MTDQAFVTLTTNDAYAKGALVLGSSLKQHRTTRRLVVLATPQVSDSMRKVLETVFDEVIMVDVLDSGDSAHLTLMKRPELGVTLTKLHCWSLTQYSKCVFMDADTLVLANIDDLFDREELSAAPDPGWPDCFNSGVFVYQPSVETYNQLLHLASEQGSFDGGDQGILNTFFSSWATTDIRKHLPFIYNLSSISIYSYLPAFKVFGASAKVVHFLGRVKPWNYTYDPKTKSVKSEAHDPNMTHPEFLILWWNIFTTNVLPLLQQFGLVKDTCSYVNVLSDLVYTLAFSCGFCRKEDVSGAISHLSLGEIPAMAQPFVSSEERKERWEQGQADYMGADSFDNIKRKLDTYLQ

Compound | IC50 [1] [nM] | IC50 [2] [nM]
CCOc1ncc(CC(=O)N2C[C@H](F)C[C@H]2C(=O)N[C@@H](c2ccccc2)c2ccc(C(C)C)c(F)n2)cc1C [Compound 798, (2S,4R)-1-[2-(6-ethoxy-5-methylpyridin-3-yl)acetyl]-4-fluoro-N-[(S)-[6-fluoro-5-(propan-2-yl)pyridin-2-yl](phenyl)methyl] pyrrolidine-2-carboxamide] | 220 | 12
O=C(N[C@@H](c1ccccc1)c1ccc(C2CC2)c(F)n1)[C@@H]1C[C@@H](F)CN1C(=O)Cc1cnn[nH]1 [Compound 721, (2S,4R)-N-[(S)-(5-cyclopropyl-6-fluoropyridin-2-yl)(phenyl)methyl]-4-fluoro-1-[2-(1H-1,2,3-triazol-5-yl)acetyl]pyrrolidine-2-carboxamide] | 1090 | 79
O=C(N[C@@H](c1ccccc1)c1ccc(C2CC2)c(F)n1)[C@@H]1C[C@@H](F)CN1C(=O)Cn1cnnc1C(F)F [Compound 759, (2S,4R)-N-[(S)-(5-cyclopropyl-6-fluoropyridin-2-yl)(phenyl)methyl]-1-{2-[3-(difluoromethyl)-4H-1,2,4-triazol-4-yl]acetyl}-4-fluoropyrrolidine-2-carboxamide] | 590 | 18
O=C(N[C@@H](c1ccccc1)c1ccc(C2CC2)c(F)n1)[C@@H]1C[C@@H](F)CN1C(=O)Cc1c[nH]c(=O)cn1 [Compound 746, (2S,4R)-N-[(S)-(5-cyclopropyl-6-fluoropyridin-2-yl)(phenyl)methyl]-4-fluoro-1-[2-(5-oxo-4,5-dihydropyrazin-2-yl)acetyl]pyrrolidine-2-carboxamide] | 1620 | 70
COc1nc(CC(=O)N2C[C@H](F)C[C@H]2C(=O)N[C@@H](c2ccccc2)c2ccc(C(C)C)cn2)nn1C [Compound 712, (2S,4R)-4-fluoro-1-[2-(5-methoxy-1-methyl-1H-1,2,4-triazol-3-yl)acetyl]-N-[(S)-phenyl[5-(propan-2-yl)pyridin-2-yl]methyl]pyrrolidine-2-carboxamide] | 330 | 15
CC(=O)N1C[C@H](F)C[C@H]1C(=O)NC(c1cccc(-c2cc(C)n[nH]2)c1)c1ccc(C(C)C)c(F)n1 (single isomer, unassigned) [Compound 696, (2S,4R)-1-acetyl-4-fluoro-N-[(S) or (R)-[6-fluoro-5-(propan-2-yl)pyridin-2-yl][3-(3-methyl-1H-pyrazol-5-yl)phenyl]methyl] pyrrolidine-2-carboxamide] | 2710 | 103
Cc1nccc(NCC(=O)N2C[C@H](F)C[C@H]2C(=O)N[C@H](c2ccccc2)c2ccc(C3CC3)c(F)n2)n1 [Compound 720, (2S,4R)-N-[(R)-(5-cyclopropyl-6-fluoropyridin-2-yl)(phenyl)methyl]-4-fluoro-1-{2-[(2-methylpyrimidin-4-yl)amino]acetyl}pyrrolidine-2-carboxamide] | > 30000 | 2450
COc1nc(C(NC(=O)[C@@H]2C[C@@H](F)CN2C(=O)Cc2cnn[nH]2)c2ccccc2)ccc1C(C)C (single isomer, unassigned) [Compound 612, (2S,4R)-4-fluoro-N-[(S) or (R)-[6-methoxy-5-(propan-2-yl)pyridin-2-yl] (phenyl)methyl]-1-[2-(1H-1,2,3-triazol-5-yl)acetyl]pyrrolidine-2-carboxamide] | > 29000 | 2180
CCn1cc(N(C)CC(=O)N2C[C@H](F)C[C@H]2C(=O)N[C@@H](c2ccccc2)c2ccc(C3CC3)c(F)c2)nn1 [Compound 473, (2S,4R)-N-[(S)-(4-cyclopropyl-3-fluorophenyl)(phenyl)methyl]-1-{2-[(1-ethyl-1H-1,2,3-triazol-4-yl)(methyl)amino]acetyl}-4-fluoropyrrolidine-2-carboxamide] | 1770 | 100
CN(C)c1cnn(CC(=O)N2C[C@H](F)C[C@H]2C(=O)N[C@H](c2ccccc2)c2ccc(C3CC3)c(F)n2)n1 [Compound 717, (2S,4R)-N-[(R)-(5-cyclopropyl-6-fluoropyridin-2-yl)(phenyl)methyl]-1-{2-[4-(dimethylamino)-2H-1,2,3-triazol-2-yl]acetyl}-4-fluoropyrrolidine-2-carboxamide] | > 25800 | 1480
CNC(=O)NCc1cccc([C@H](NC(=O)[C@@H]2C[C@@H](F)CN2C(=O)Cc2cnn[nH]2)c2ccc(C(C)C)c(F)n2)c1 [Compound 656, (2S,4R)-4-fluoro-N-[(S)-[6-fluoro-5-(propan-2-yl)pyridin-2-yl](3-{[(methylcarbamoyl)amino]methyl}phenyl)methyl]-1-[2-(1H-1,2,3-triazol-5-yl)acetyl]pyrrolidine-2-carboxamide] | 10800 | 1300
O=C(N[C@@H](c1ccccc1)c1ccc(C2CC(F)(F)C2)c(F)n1)[C@@H]1C[C@@H](F)CN1C(=O)Cc1nc(C(F)(F)F)co1 [Compound 528, (2S,4R)-N-[(S)-[5-(3,3-difluorocyclobutyl)-6-fluoropyridin-2-yl](phenyl)methyl]-4-fluoro-1-{2-[4-(trifluoromethyl)-1,3-oxazol-2-yl]acetyl}pyrrolidine-2-carboxamide] | 330 | 15
CC(=O)N1CCOCC1C(=O)N1C[C@H](F)C[C@H]1C(=O)N[C@@H](c1ccccc1)c1ccc(C(C)C)cc1 (stereo partly drawn) [Compound 149, (2S,4R)-1-(4-acetylmorpholine-3-carbonyl)-4-fluoro-N-[(S)-phenyl[4-(propan-2-yl)phenyl]methyl]pyrrolidine-2-carboxamide] | > 10000 | 332
O=C(N[C@@H](c1ccccc1)c1ccc(C2CC(F)(F)C2)c(F)n1)[C@@H]1C[C@@H](F)CN1C(=O)Cc1ncc[nH]c1=O [Compound 529, (2S,4R)-N-[(S)-[5-(3,3-difluorocyclobutyl)-6-fluoropyridin-2-yl](phenyl)methyl]-4-fluoro-1-[2-(3-oxo-3,4-dihydropyrazin-2-yl)acetyl]pyrrolidine-2-carboxamide] | 1040 | 16
Cc1cn(CC(=O)N2C[C@H](F)C[C@H]2C(=O)N[C@H](c2ccccc2)c2ccc(C3(C)CC3)c(F)c2)c(=O)[nH]c1=O [Compound 557, (2S,4R)-4-fluoro-N—((R)-(3-fluoro-4-(1-methylcyclopropyl)phenyl)(phenyl)methyl)-1-(2-(5-methyl-2,4-dioxo-3,4-dihydropyrimidin-1(2H)-yl)acetyl)pyrrolidine-2-carboxamide] | 5780 | 424
O=C(N[C@@H](c1ccccc1)c1ccc(C2CC2)c(F)c1)[C@@H]1C[C@@H](F)CN1C(=O)CN1CCOCC1=O [Compound 423, (2S,4R)-N-[(S)-(4-cyclopropyl-3-fluorophenyl)(phenyl)methyl]-4-fluoro-1-[2-(3-oxomorpholin-4-yl)acetyl]pyrrolidine-2-carboxamide] | > 9260 | 350
Cn1c(CC(=O)N2C[C@H](F)C[C@H]2C(=O)N[C@@H](c2ccccc2)c2ccc(C3CC3)c(F)c2)noc1=O [Compound 494, (2S,4R)-N-[(S)-(4-cyclopropyl-3-fluorophenyl)(phenyl)methyl]-4-fluoro-1-[2-(4-methyl-5-oxo-4,5-dihydro-1,2,4-oxadiazol-3-yl)acetyl]pyrrolidine-2-carboxamide] | 12400 | 661
